MIC data for eight compounds are collected here from patent US20230114728A1 (Venatorx Pharmaceuticals, Inc., priority 2019, published 2023).

Converted amounts (≈) assume the structure as drawn.

Assay in all cases: Broth microdilution MIC in iron-depleted CAMHB (IDM)
Holding throughout (type): cell-based
For orientation: In broth dilution the organism is exposed to a series of concentrations in liquid medium.

One assay concerns A. baumannii ATCC 17978. As to conditions: Acinetobacter baumannii, ATCC17978, read-out: Minimum Inhibitory Concentration, ATCC 17978. The method in brief: (§1)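 MIC read by eye as the lowest concentration with no bacterial growth, following CLSI microdilution in iron-depleted cation-adjusted Mueller-Hinton broth at pH 7.3. Starting inoculum 2-8×10^5 CFU/mL; incubation 37° C, 16-20 h for Pseudomonas, 20-24 h for Acinetobacter.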

The next assay relates to A. baumannii ATCC 19606. As to conditions: Acinetobacter baumannii, ATCC19606, read-out: Minimum Inhibitory Concentration, ATCC 19606. Put shortly:
as §1

The subject of assay [1] is A. baumannii CDC-0033 producing NDM-1, and OXA-94. Particulars: Acinetobacter baumannii, read-out: Minimum Inhibitory Concentration, CDC-0033. The method in brief:
as §1

The subject of assay [2] is A. baumannii CDC-0083 producing NDM-1, PER-7, OXA-23, and OXA-69. As to conditions: Acinetobacter baumannii, read-out: Minimum Inhibitory Concentration, CDC-0083. Put shortly: as §1
Another assay has as its system P. aeruginosa ATCC 27853. As to conditions: Pseudomonas aeruginosa, ATCC27853, read-out: Minimum Inhibitory Concentration, P. aeruginosa ATCC 27853. Put shortly:
as §1

The next assay relates to P. aeruginosa ATCC 35151. Particulars: Pseudomonas aeruginosa, ATCC35151; iron-depleted MHB (IDM); hyper-permeable strain; read-out: Minimum Inhibitory Concentration, P. aeruginosa ATCC 35151. The method in brief: as §1
Assay [3] concerns P. aeruginosa CDC-0095 producing OXA-50, and PAO. As to conditions: Pseudomonas aeruginosa, read-out: Minimum Inhibitory Concentration, P. aeruginosa CDC-0095. The method in brief: as §1

Take `CCN1CCN(C(=O)N[C@H](C(=O)N[C@H]2Cc3ccc(F)c(C(=O)O)c3OB2O)c2c(F)cc(O)c(O)c2Cl)C(=O)C1=O` (single isomer, unassigned) [Example 125]: the MIC (with A. baumannii ATCC 17978; in the assay with A. baumannii ATCC 19606; in assay [1]; in assay [2]; in the assay on P. aeruginosa ATCC 27853; in the assay on P. aeruginosa ATCC 35151) was more than 128 µg/mL throughout. In assay [3], the MIC is more than 128 µg/mL.

Consider `NC1(CN2CCN(C(=O)N[C@@H](C(=O)N[C@H]3Cc4ccc(F)c(C(=O)O)c4OB3O)c3cc(F)c(O)c(O)c3Cl)C(=O)C2=O)CC1` (single isomer, unassigned) [Example 133], for which the MIC with A. baumannii ATCC 17978 was 0.25 µg/mL (≈ 0.384 µM); in the assay with A. baumannii ATCC 19606 it was 0.25 µg/mL (≈ 0.384 µM); in assay [1], 8 to 16 µg/mL (≈ 12.3 to 24.5 µM); in assay [2], more than 128 µg/mL; with P. aeruginosa ATCC 27853 it was 0.5 to 1 µg/mL (≈ 0.767 to 1.53 µM); with P. aeruginosa ATCC 35151 it was 0.25 µg/mL (≈ 0.384 µM). The MIC in assay [3] is 2 to 4 µg/mL (≈ 3.07 to 6.14 µM).

With `NC1(CN2CCN(C(=O)N[C@@H](C(=O)N[C@H]3Cc4ccc(F)c(C(=O)O)c4OB3O)c3c(F)cc(O)c(O)c3Cl)C(=O)C2=O)CC1` (single isomer, unassigned) [Example 134], the MIC is 0.5 to 1 µg/mL (≈ 0.767 to 1.53 µM) in the assay with A. baumannii ATCC 17978; 0.5 to 1 µg/mL (≈ 0.767 to 1.53 µM) with A. baumannii ATCC 19606; 32 to 64 µg/mL (≈ 49.1 to 98.2 µM) in assay [1]; more than 128 µg/mL in assay [2]; 2 to 4 µg/mL (≈ 3.07 to 6.14 µM) with P. aeruginosa ATCC 27853; 0.25 µg/mL (≈ 0.384 µM) in the assay with P. aeruginosa ATCC 35151. Further, the MIC in assay [3] fell in the range of 32 to 64 µg/mL (≈ 49.1 to 98.2 µM).

Take `NCCN1CCN(C(=O)N[C@@H](C(=O)N[C@H]2Cc3ccc(F)c(C(=O)O)c3OB2O)c2cc(F)c(O)c(O)c2Cl)C(=O)C1=O` (single isomer, unassigned) [Example 179]: the MIC in the assay with A. baumannii ATCC 17978 was 0.5 to 1 µg/mL (≈ 0.799 to 1.6 µM); with A. baumannii ATCC 19606, 0.5 to 1 µg/mL (≈ 0.799 to 1.6 µM); in assay [1] it was 8 to 16 µg/mL (≈ 12.8 to 25.6 µM); in assay [2], more than 128 µg/mL; in the assay with P. aeruginosa ATCC 27853, 0.5 to 1 µg/mL (≈ 0.799 to 1.6 µM); in the assay on P. aeruginosa ATCC 35151 it was 0.25 µg/mL (≈ 0.4 µM). Also, in assay [3], the MIC lay within 2 to 4 µg/mL (≈ 3.2 to 6.39 µM).

In the case of `NCCCN1CCN(C(=O)N[C@@H](C(=O)N[C@H]2Cc3ccc(F)c(C(=O)O)c3OB2O)c2cc(F)c(O)c(O)c2Cl)C(=O)C1=O` (single isomer, unassigned) [Example 180], the MIC with A. baumannii ATCC 17978 was 0.5 to 1 µg/mL (≈ 0.782 to 1.56 µM); in the assay with A. baumannii ATCC 19606 it was 0.5 to 1 µg/mL (≈ 0.782 to 1.56 µM); in assay [1] it was 8 to 16 µg/mL (≈ 12.5 to 25 µM); in assay [2], more than 128 µg/mL; in the assay on P. aeruginosa ATCC 27853, 0.5 to 1 µg/mL (≈ 0.782 to 1.56 µM); in the assay with P. aeruginosa ATCC 35151, 0.25 µg/mL (≈ 0.391 µM). Moreover, in assay [3], the MIC is 2 to 4 µg/mL (≈ 3.13 to 6.25 µM).

On to `C[C@@H](O)[C@@H](NC(=O)N1CCN(CCNC(=O)c2c(F)cc(O)c(O)c2Cl)C(=O)C1=O)C(=O)N[C@H]1Cc2ccc(F)c(C(=O)O)c2OB1O` [Example 102, (R)-3-((2R,3R)-2-(4-(2-(2-chloro-6-fluoro-3,4-dihydroxybenzamido)ethyl)-2,3-dioxopiperazine-1-carboxamido)-3-hydroxybutanamido)-7-fluoro-2-hydroxy-3,4-dihydro-2H-benzo[e][1,2]oxaborinine-8-carboxylic acid], for which the MIC lay within 2 to 4 µg/mL (≈ 2.87 to 5.73 µM) with A. baumannii ATCC 17978; 2 to 4 µg/mL (≈ 2.87 to 5.73 µM) in the assay on A. baumannii ATCC 19606; 32 to 64 µg/mL (≈ 45.9 to 91.7 µM) in assay [1]; 32 to 64 µg/mL (≈ 45.9 to 91.7 µM) in assay [2]; 2 to 4 µg/mL (≈ 2.87 to 5.73 µM) in the assay with P. aeruginosa ATCC 27853; 0.5 to 1 µg/mL (≈ 0.717 to 1.43 µM) in the assay on P. aeruginosa ATCC 35151. Besides, the MIC in assay [3] was 2 to 4 µg/mL (≈ 2.87 to 5.73 µM).

Turning to `NS(=O)(=O)Nc1cccc(C(NC(=O)N2CCN(Cc3c(F)cc(O)c(O)c3Cl)C(=O)C2=O)C(=O)N[C@H]2Cc3cccc(C(=O)O)c3OB2O)c1` (stereo partly drawn) [Example 131, (3R)-3-(2-(4-(2-chloro-6-fluoro-3,4-dihydroxybenzyl)-2,3-dioxopiperazine-1-carboxamido)-2-(3-(sulfamoylamino)phenyl)acetamido)-2-hydroxy-3,4-dihydro-2H-benzo[e][1,2]oxaborinine-8-carboxylic acid], the MIC is 0.5 to 1 µg/mL (≈ 0.668 to 1.34 µM) with A. baumannii ATCC 17978; more than 128 µg/mL in the assay on A. baumannii ATCC 19606; more than 128 µg/mL in assay [1]; more than 128 µg/mL in assay [2]; 8 to 16 µg/mL (≈ 10.7 to 21.4 µM) with P. aeruginosa ATCC 27853; 0.25 µg/mL (≈ 0.334 µM) with P. aeruginosa ATCC 35151. In addition, the MIC in assay [3] lay within 8 to 16 µg/mL (≈ 10.7 to 21.4 µM).

For the compound `NS(=O)(=O)c1cc(O)cc(C(NC(=O)N2CCN(Cc3c(F)cc(O)c(O)c3Cl)C(=O)C2=O)C(=O)N[C@H]2Cc3cccc(C(=O)O)c3OB2O)c1` (stereo partly drawn) [Example 132, (3R)-3-(2-(4-(2-chloro-6-fluoro-3,4-dihydroxybenzyl)-2,3-dioxopiperazine-1-carboxamido)-2-(3-hydroxy-5-sulfamoylphenyl)acetamido)-2-hydroxy-3,4-dihydro-2H-benzo[e][1,2]oxaborinine-8-carboxylic acid], the MIC is more than 128 µg/mL with A. baumannii ATCC 17978; 8 to 16 µg/mL (≈ 10.7 to 21.3 µM) in the assay on A. baumannii ATCC 19606; more than 128 µg/mL in assay [1]; more than 128 µg/mL in assay [2]; 8 to 16 µg/mL (≈ 10.7 to 21.3 µM) with P. aeruginosa ATCC 27853; 0.5 to 1 µg/mL (≈ 0.667 to 1.33 µM) in the assay with P. aeruginosa ATCC 35151. The MIC in assay [3] was more than 128 µg/mL.
